Data as given in patent US5723580A, “Ketomethylene group-containing aldehyde cysteine and serine protease inhibitors” (Cephalon, Inc., priority 1996, dated 1998).
pIC50: −log10 of the molar value.

Tests used:
Assay type in all cases: biochemical
Calpain I = biological target: T1, Calpain I (Homo sapiens, UniProt P07384); test: Inhibition of calpain I activity (fluorescence, Succ-Leu-Tyr-MNA substrate hydrolysis); settings: 0.2 mM Succ-Leu-Tyr-MNA, pH 7.5
T1 construct: made in house
T1 sequence (P07384 1-714): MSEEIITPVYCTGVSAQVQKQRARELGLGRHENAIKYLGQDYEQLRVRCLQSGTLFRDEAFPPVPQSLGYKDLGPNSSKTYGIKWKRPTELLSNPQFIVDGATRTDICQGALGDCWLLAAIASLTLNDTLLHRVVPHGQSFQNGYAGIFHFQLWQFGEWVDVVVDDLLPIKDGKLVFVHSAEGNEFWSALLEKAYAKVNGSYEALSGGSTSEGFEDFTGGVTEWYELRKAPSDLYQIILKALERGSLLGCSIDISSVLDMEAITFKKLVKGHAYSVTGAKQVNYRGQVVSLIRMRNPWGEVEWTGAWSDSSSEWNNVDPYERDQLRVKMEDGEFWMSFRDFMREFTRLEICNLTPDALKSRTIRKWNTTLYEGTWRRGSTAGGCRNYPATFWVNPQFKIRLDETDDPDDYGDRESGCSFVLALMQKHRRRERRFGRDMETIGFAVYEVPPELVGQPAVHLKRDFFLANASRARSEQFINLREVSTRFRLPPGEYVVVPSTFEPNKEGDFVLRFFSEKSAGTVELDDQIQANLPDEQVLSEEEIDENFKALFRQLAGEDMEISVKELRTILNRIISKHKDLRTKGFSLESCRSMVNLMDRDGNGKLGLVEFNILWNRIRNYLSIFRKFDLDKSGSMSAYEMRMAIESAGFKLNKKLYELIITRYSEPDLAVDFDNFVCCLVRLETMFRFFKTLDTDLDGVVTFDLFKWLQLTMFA
T1 sequence (P04632 1-268 partner): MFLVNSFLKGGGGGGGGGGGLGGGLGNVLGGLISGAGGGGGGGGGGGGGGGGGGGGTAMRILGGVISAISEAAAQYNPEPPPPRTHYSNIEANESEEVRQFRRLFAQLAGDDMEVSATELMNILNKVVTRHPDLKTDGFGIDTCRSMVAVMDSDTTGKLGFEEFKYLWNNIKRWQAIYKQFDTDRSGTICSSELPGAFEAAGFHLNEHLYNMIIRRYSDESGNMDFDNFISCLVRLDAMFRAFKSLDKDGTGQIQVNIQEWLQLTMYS
Method: (§1) To evaluate inhibitory activity, stock solutions (40 times concentrated) of each compound to be tested were prepared in 100% anhydrous DMSO and 5 μL of each inhibitor preparation were aliquoted into each of three wells of a 96-well plate. Calpain I, prepared by a modification of the method of W. J. Lee et al. (Biochem. Internatl. 22: 163-171 (1990)), was diluted into assay buffer (i.e., 50 mM Tris, 50 mM NaCl, 1 mM EDTA, 1 mM EGTA, and 5 mM-mercaptoethanol, pH 7.5 including 0.2 mM Succ-Leu-Tyr-MNA) and 175 μL aliquoted into the same wells containing the independent inhibitor stocks as well as to positive control wells containing 5 μL DMSO, but no compound. To start the reaction, 20 μL of 50 mM CaCl2 in assay buffer was added to all wells of the plate, excepting three, which were used as background signal baseline controls. Substrate hydrolysis was monitored every 5 minutes for a total of 30 minutes using a Fluoroskan II fluorescence plate reader. Substrate hydrolysis in the absence of inhibitor was linear for up to 15 minutes.
(§2) Inhibition of calpain I activity was calculated as the percent decrease in the rate of substrate (S) hydrolysis in the presence of inhibitor (I) relative to the rate in its absence (o). […] The results were plotted as % inhibition versus log inhibitor concentration and the IC50 was calculated from linear regression of the data.

cathepsin B = test: Inhibition of cathepsin B activity (Cbz-Phe-Arg-AMC substrate); settings: @1 uM; 0.1 mM Cbz-Phe-Arg-AMC, pH 6.0
Method: as §1, with “To start the reaction, 20 μL of 50 mM CaCl2 in assay buffer was added to all wells of the plate, excepting three, which were used as background signal baseline controls.” left out, “Substrate hydrolysis in the absence of inhibitor was linear for up to 15 minutes.” left out
as §2
(§3) Additionally, the order of reagents added to the plate was altered because both enzymes are constitutively active. […] Substrate hydrolysis was monitored using a Fluoroskan II (ex=390 nm; em=460 nm).

cathepsin L = test: Inhibition of cathepsin L activity (Cbz-Phe-Arg-AMC substrate); settings: @1 uM; 0.006 mM Cbz-Phe-Arg-AMC, pH 6.0
Method: as §1, with “To start the reaction, 20 μL of 50 mM CaCl2 in assay buffer was added to all wells of the plate, excepting three, which were used as background signal baseline controls.” left out, “Substrate hydrolysis in the absence of inhibitor was linear for up to 15 minutes.” left out
as §2, §3

thrombin = test: Inhibition of thrombin (Bz-Phe-Val-Arg-AMC substrate); settings: @10 uM; 25 μM Bz-Phe-Val-Arg-AMC, pH 7.5
α-chymotrypsin = test: Inhibition of α-chymotrypsin (Succ-Ala-Ala-Pro-Phe-AMC substrate); settings: @10 uM; 0.03 mM Succ-Ala-Ala-Pro-Phe-AMC, pH 7.5
Method: as §1, with “To start the reaction, 20 μL of 50 mM CaCl2 in assay buffer was added to all wells of the plate, excepting three, which were used as background signal baseline controls.” left out, “Substrate hydrolysis in the absence of inhibitor was linear for up to 15 minutes.” left out
Additionally, because α-chymotrypsin is not a calcium sensitive enzyme and is constitutively active, following addition of inhibitor stocks to the 96 well plates, 100 μl of a 2-fold concentrated stock of enzyme in dilution buffer was first added and the reaction started by addition of 100 μl of a 2-fold concentrated stock of substrate in assay buffer. Substrate hydrolysis was monitored every 5 minutes up to 30 minutes using a Fluoroskan II ([…]). […]

pIC50 (Calpain I): 7.92
SMILES: CC(C)CC(CC(=O)[C@H](CC(C)C)NC(=O)OCc1ccccc1)C(=O)N[C@H](C=O)CC(C)C (stereo partly drawn) [compound 7, Z-Leu-Psi[COCH2 ]Leu-Leu-H]
Cat B % I (cathepsin B): 97%
Cat L % I (cathepsin L): 100%
Thrombin % I (thrombin): 0%
Chymotrypsin % I (α-chymotrypsin): 53%
